Measurements reported in patent US20200164065A1, “TRITERPENE SAPONIN ANALOGUES” (ADJUVANCE TECHNOLOGIES, INC., priority 2017, published 2020).
Where two headings read alike, the source gives them in different places.

Assays:
hemolysis = test: Hemolytic assay; format: cell-based
Protocol: (§1) Natural and synthetic QS-21 (SQS-21 or SAPONEX®) and a variety of analogs were tested for hemolytic activity.

Stability at 37° C. = format: physicochemical; details: after two weeks at 37° C.
Protocol: as §1

[1] = cited from earlier work
liver = test: Pilot pharm/tox study: histopathology of 33 tissues
[2] = Companion toxicity study: body mass three days after immunization; details: 20 mcg
[3] = Pharm/tox study with Adacel, QS-21 and TiterQuil-1055: body weight
Description: A 0.5 mcg dose of Adacel was selected for a pharmacology/toxicology (pharm/tox) study.
Mice were vaccinated SC on days 1 and 15, weighed daily, and bled and sacrificed on day 22, except for group 7 which was sacrificed on day 29.

HA from H3N2 virus = test: Anti-HA total IgG ELISA after immunization with HA protein; format: in vivo, female BL/6 mice; details: 50 μg Compound I-4 with 9 or 3 μg/ml HA protein vs 9 μg/ml HA alone, day 21 serum
[4] = mouse, in vivo

Molecule | hemolytic activity (hemolysis) | degraded (Stability at 37° C.) | tolerated / maximum dose in cancer patients ([1]; cancer patients, above it local and systemic side effects) [µg] | maximum dose for healthy patients ([1]; healthy patients) [µg] | highest practical tolerable dose ([1]; well (non-cancer) adult and child recipients) [µg] | liver histopathology (hepatocellular cytoplasmic vacuolization) (liver; mouse, in vivo, sc) | body mass lost on average [2] | body weight lost ([3]; mice injected with 20 mcg) | anti-HA total IgG endpoint titer and dose sparing of HA (HA from H3N2 virus) | weight loss (30 mcg dose with Engerix-B) | weight loss (100 mcg dose with Engerix-B) [%] | weight loss (300 mcg dose with Engerix-B) [%] | body mass gained on average [4] [%] | liver histopathology (hepatocellular cytoplasmic vacuolization) (liver; SC days 1 and 15, sacrificed day 22, 50 mcg TiterQuil-1055, 20 mcg QS-21, Adacel 2.5 mcg pertussis toxin) | weight loss ([3]; mice receiving 50 mcg)
QS-21 [reference compound] | highly hemolytically active | 20% | 100 to 150 | ~50 | 25 to 50 | Mild vacuolar changes | 8-10% | 8-9% |  |  |  |  |  |  | 
CC1O[C@@H](OC2C(O)[C@@H](NC(=O)CCCCCCCCCCC(=O)O)C(CO)O[C@H]2OC(=O)[C@]23CCC(C)(C)CC2C2=CCC4C5(C)CC[C@H](O)C(C)(C=O)C5CCC4(C)C2(C)CC3O)C(O)C(O)[C@H]1O[C@@H]1OC[C@@H](O)C(O)C1O (some centres unmarked) [Compound I-4] | much lower or undetectable hemolytic activity | without detectable degradation |  |  |  |  |  |  | enhances anti-HA total IgG and provides a dose sparing effect on HA concentration | No weight loss | 4 | 5 | 5 | No changes at all | No weight loss
